# According to patent US8729088B2, “Toll-like receptor modulators and treatment of diseases” (The Regents of the University of California, priority 2009, dated 2014):
# Experiments:
# TLR7 = experiment: Cytokine induction in BMDM from wild type and TLR7 deficient mice; assay type: cell-based, mouse; conditions: BMDM from TLR7 deficient mice
# Protocol: In vitro measurements of cytokine induction were performed using the mouse leukemic monocyte macrophage cell line, RAW264.7. […] BMDM were prepared from C57BL/6 and TLR7 deficient mice as described in Wu, C. C et al., (2007) “Immunotherapeutic activity of a conjugate of a Toll-like receptor 7 ligand”, Proc Natl Acad Sci USA 104, 3990-5.
# In general, RAW264.7 cells or BMDM were incubated with various concentrations of conjugates for 18 hours at 37° C., 5% CO2 and culture supernatants were collected. The levels of cytokines (IL-6, IL-12 or TNF-α in the supernatants were determined by ELISA (BD Biosciences Pharmingen, La Jolla, Calif.) (Cho, H. J et al., “Immunostimulatory DNA-based vaccines induce cytotoxic lymphocyte activity by a T-helper cell-independent mechanism” [see comments], Nat Biotechnol 18, 509-14 (2000)), and the results presented in FIG. 2A-D. Data are mean±SEM of triplicates and are representative of three independent experiments. Minimum detection levels of these cytokines were 15 pg/mL.
# [1] = test system: pro-inflammatory cytokines (IL-6, TNF-α) in sera; experiment: In vivo kinetics of pro-inflammatory cytokine induction after intravenous injection; design: species or system mouse; conditions: 200 nmol per animal i.v.
# Protocol: The pharmacokinetics of pro inflammatory cytokine induction by TLR7 conjugates was examined using 6- to 8-week old C57BL/6 mice. […] Blood samples were collected 2, 4, 6, 24 or 48 hours after injections. Sera were separated and kept at −20° C. until use.
# Solubility observations = assay type: physicochemical
# C57BL/6 mice [2] = conditions: mouse, in vivo
# Protocol: (§1) Peritoneal cells were collected four hours after TG injection. Total cells were counted by haematocytometer and neutrophils were morphologically identified.
# (§2) 4 hours post TG injection total peritoneal cells were harvested and counted. Neutrophils were identified morphologically and counted.
# (§3) One day after the last treatment, mice received intraperitoneal injection of 2 ml thioglycollate medium. […] Three hours after the thioglycollate injection, neutrophil infiltration to the peritoneum was evaluated.
# mice = conditions: cited from earlier work
# C57BL/6 mice [3] = experiment: Thioglycolate induced peritonitis (peritoneal neutrophil infiltration); conditions: 50 nmoles i.v. for three days before thioglycolate
# Protocol: as §1, §2, §3
structure (smiles),measurement,setting,value
"COCCOc1nc(N)c2nc(O)n(Cc3ccccc3)c2n1 [SM, 9-benzyl-8-hydroxy-2-(2-methoxyethoxy) adenine, reference compound]",IL-12 and IL-6 induction,TLR7,little or no IL-12 and IL-6
same,course of serum cytokine levels,[1],declined rapidly after 2 hours
same,solubility in aqueous solution,Solubility observations,insoluble
same,adverse reaction compared to TG,C57BL/6 mice [2],no additional adverse reaction
same,adverse effects in mice,mice; Hayashi et al. 2008,anorexic effects and hypothermia
same,minimum dose that induced the anorectic reaction,mice; mucosal administration,50 nmoles per mice
same,neutrophils recruited to the peritoneum,C57BL/6 mice [3],reduction
same,total cells recruited to the peritoneum,C57BL/6 mice [3],reduction
